According to article PMC5362899, “Structural insights into the nucleotide base specificity of P2X receptors” (Scientific Reports, 2017):

Target: T1, zfP2X4 (ΔP2X4-C) WT (Danio rerio, UniProt F8W463, N187R/N78K)
T1 construct: EGFP (N); octa-histidine tag (N); made in house; host or cells: Sf9 insect cells
T1 sequence (F8W463 28-365 N78K/N187R limits assumed): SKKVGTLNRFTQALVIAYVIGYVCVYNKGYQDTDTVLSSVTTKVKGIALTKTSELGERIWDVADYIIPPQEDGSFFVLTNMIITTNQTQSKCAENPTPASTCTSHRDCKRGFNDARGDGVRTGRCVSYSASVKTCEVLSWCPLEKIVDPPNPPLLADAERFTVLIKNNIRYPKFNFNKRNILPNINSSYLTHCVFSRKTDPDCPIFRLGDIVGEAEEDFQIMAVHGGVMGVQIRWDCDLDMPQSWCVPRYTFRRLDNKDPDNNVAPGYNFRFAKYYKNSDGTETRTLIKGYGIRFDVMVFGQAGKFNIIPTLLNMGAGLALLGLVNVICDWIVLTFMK
Experiment: ATR-FTIR difference spectroscopy, residual nucleotide after washing, zfP2X4 WT
Type: binding, zebrafish
Conditions: 10 μM nucleotide, after 15–30 min washing, P-O stretching bands 1250–800 cm−1
From the text: To further investigate the nucleotide binding specificity of zfP2X4, we applied ligand-binding induced difference Attenuated total reflectance (ATR)-Fourier-transform infrared (FTIR) spectroscopy on the WT and conserved threonine mutants (T189S and T189V) of zfP2X4.
Figure 5 ATR-FTIR spectroscopic analysis of zfP2X4 for the ATP and CTP bindings. (A) The reduction of the ligand binding induced difference spectra in the ΔP2X4-C ^zfWT, ^zfT189S and ^zfT189V mutants around the P-O stretching region (1250–800 cm^−1) after washing treatment for 15–30 min. (B) The residual nucleotides after the washing treatment estimated from the ATR-FTIR analysis in (A).
The nucleotide binding affinity of zfP2X4 was analyzed by reduction of the band intensity after washing treatment (Fig. 5). The reduction of the P-O stretching bands between 1250–800 cm^−1 was monitored for ATP (Fig. 5A). […]
The perfusion-induced difference FTIR spectroscopy was performed as similarly to the previous studies. […] ATR-FTIR spectra of the samples were recorded at 25 °C and 2 cm^−1 resolution using a VERTEX 70 spectrometer (Bruker Optics) equipped with a liquid-nitrogen-cooled MCT detector. […] The obtained difference spectra were normalized based on the absolute absorbance of the amide I band at 1653 cm^−1, which well correlates with the quantities of the proteins on the ATR crystals. […]

SMILES | residual nucleotide binding after washing
Nc1ccn([C@@H]2O[C@H](COP(=O)(O)OP(=O)(O)OP(=O)(O)O)[C@@H](O)[C@H]2O)c(=O)n1 [CTP] | ~ 50%
Nc1ncnc2c1ncn2[C@@H]1O[C@H](COP(=O)(O)OP(=O)(O)OP(=O)(O)O)[C@@H](O)[C@H]1O [ATP, Adenosine 5-triphosphate] | ~ 80%
